Measured values as given in patent US10653695B2, “Pharmaceutical formulations of neflamapimod” (EIP Pharma, LLC, priority 2018, dated 2020).

How the values were obtained:
[1] = Dissolution testing (USP <711>, Apparatus 2) of neflamapimod capsules and blends, including on stability; assay type: physicochemical; settings: powder-in-capsule vs capsules stored at 40° C./75% RH; FIG. 1
Text: USP Dissolution Acceptance Criteria. Dissolution testing of a drug product is a method for evaluating physiological availability that depends upon having the drug in a dissolved state. The United States Pharmacopoeia (“USP”) dissolution testing <USP 711> involves three stages with the acceptance criteria defined for each stage as a function of a quantity Q, a percentage of the label value that is established for each drug product.
Dissolution testing data described herein are generated according to the specifications shown below in Table 3 and using the procedure set forth by the United States Pharmacopeial Convention in USP <711>.
Determined by the procedure set forth in Example 1.1.

[2] = cited from earlier work

Dissolution compared to the aged capsules [1]: better dissolution
SMILES: O=c1ncn2nc(Sc3ccc(F)cc3F)ccc2c1-c1c(Cl)cccc1Cl [Neflamapimod]
Solubility in water [2]: very low
